Drawing on ChEMBL document CHEMBL3352223, “Synthesis, anti-cancer and anti-inflammatory activity of novel 2-substituted isoflavenes” (Bioorg Med Chem, 2014), this text covers IC50 and inhibition for 13 molecules.

In one experiment the test system is MDA-MB-231. The experiment in a line: Antiproliferative activity against human MDA-MB-231 cells after 72 hrs by Alamar blue/spectrophotometric analysis. In kind it is functional, cell-based. The following applies: MDA-MB-231, 72 h.
Experiment [1] in a line: Antiproliferative activity against human SHEP cells after 72 hrs by Alamar blue/spectrophotometric analysis. In kind it is functional, cell-based. (In general: Alamar Blue is a resazurin reagent that responds to reducing activity.)
Another experiment concerns RAW264.7. The experiment in a line: Antiinflammatory activity against mouse RAW264.7 cells assessed as reduction of LPS-induced IL6 production at 10 uM after 24 hrs by ELISA. In kind it is functional. To be noted: RAW264.7, 24 h. Background: In an ELISA, binding on a coated surface is turned into a signal by an enzyme label.

Turning to `O=C(CC1Oc2cc(O)ccc2C=C1c1ccc(O)cc1)c1cccc2ccccc12` (centres undefined), the IC50 (commonly the point on the concentration scale where inhibition reaches its midpoint) with MDA-MB-231 was found to be 106 µM; in experiment [1], 128 µM.
The matching figures for `COc1ccc(C2=C(c3ccc(O)cc3)C(CC(C)=O)Oc3cc(O)ccc32)cc1` (centres undefined): 39 µM and 69 µM.
On the same counts, the results for `O=C(CC1Oc2cc(O)ccc2C=C1c1ccc(O)cc1)c1ccc(Br)cc1` (centres undefined) are 37 µM and 33 µM.
The matching figures for `Oc1ccc(C2=Cc3ccc(O)cc3OC2)cc1` [IDRONOXIL]: 33 µM and 9.9 µM.
For `CCc1ccc(C(=O)CC2Oc3cc(O)ccc3C=C2c2ccc(O)cc2)cc1` (centres undefined), the IC50 in the experiment with MDA-MB-231 was 198 µM; in experiment [1], 377 µM.
The matching figures for `O=C(CC1Oc2cc(O)ccc2C=C1c1ccc(O)cc1)c1ccccc1` (centres undefined): 88 µM and 102 µM.
Take `COc1ccc(C(=O)CC2Oc3cc(O)ccc3C=C2c2ccc(O)cc2)cc1` (centres undefined): the IC50 came out at 7.6 µM in the experiment on MDA-MB-231 and 37 µM in experiment [1]. In the experiment with RAW264.7, the inhibition (commonly the percentage by which the read-out fell short of the control) at 10 µM was over 50%.
The matching figures for `CC(=O)CC1Oc2cc(O)ccc2C=C1c1ccc(O)cc1` (centres undefined): 145 µM, 124 µM and over 50%.
Consider `C/C(CC1Oc2cc(O)ccc2C=C1c1ccc(O)cc1)=N\Nc1ccc([N+](=O)[O-])cc1[N+](=O)[O-]` (centres undefined), for which the IC50 worked out at 36 µM with MDA-MB-231 and 62 µM in experiment [1].
The matching figures for `CC(C)CC(=O)CC1Oc2cc(O)ccc2C=C1c1ccc(O)cc1` (centres undefined): 67 µM and 139 µM.
`Cc1cc(C2Oc3cc(O)ccc3C=C2c2ccc(O)cc2)cc(C)c1N` (centres undefined): the IC50 came to 53 µM with MDA-MB-231 and 102 µM in experiment [1]. For the same molecule, in the experiment on RAW264.7, the inhibition at 10 µM is over 50%.
Consider `O=C(CC1Oc2cc(O)ccc2C=C1c1ccc(O)cc1)c1ccc(Cl)cc1` (centres undefined), for which the figures for the IC50 (in the experiment on MDA-MB-231; in experiment [1]) were 151 µM and 167 µM, respectively.
Turning to `Cc1ccc(C(=O)CC2Oc3cc(O)ccc3C=C2c2ccc(O)cc2)cc1` (centres undefined), the IC50 with MDA-MB-231 is 55 µM; in experiment [1] it was 60 µM.
